Results taken from patent US12077503B2, “Substituted cyclic amides and their use as herbicides” (FMC CORPORATION, priority 2015, dated 2024).

How the values were obtained:
Type in all cases: in vivo
[1] = system: ragweed (common ragweed, Ambrosia elatior); assay: Test A preemergence; conditions: for Plant response rating, Ragweed: 125 g ai/ha, preemergence, 0 to 100 scale (0 no effect, 100 complete control); for Ragweed plant response rating (0 to 100 scale, 0 is no effect, 100 is complete control): Preemergence, 500 g ai/ha, visual injury approx. 10 d
Procedure, shortened: (§1)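 In a loam soil and sand blend, planted seeds got a preemergence directed soil spray, and young plants at the one- to two-leaf stage, 2–10 cm high, got a postemergence application; ~10 d greenhouse hold; injury rated visually, 0 = none, 100 = complete control.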

[2] = system: giant foxtail (Setaria faberii); assay: Test A preemergence; conditions: for Plant response rating, Foxtail, Giant: 125 g ai/ha, preemergence, 0 to 100 scale (0 no effect, 100 complete control); for Foxtail, Giant plant response rating (0 to 100 scale, 0 is no effect, 100 is complete control): Preemergence, 500 g ai/ha, visual injury approx. 10 d
Procedure, shortened: as §1

[3] = system: ryegrass, Italian (Italian ryegrass, Lolium multiflorum); assay: Test A preemergence; conditions: for Plant response rating, Ryegrass, Italian: 125 g ai/ha, preemergence, 0 to 100 scale (0 no effect, 100 complete control); for Ryegrass, Italian plant response rating (0 to 100 scale, 0 is no effect, 100 is complete control): Preemergence, 500 g ai/ha, visual injury approx. 10 d
Procedure, shortened: as §1

[4] = system: pigweed (Amaranthus retroflexus); assay: Test A preemergence; conditions: for Plant response rating, Pigweed: 125 g ai/ha, preemergence, 0 to 100 scale (0 no effect, 100 complete control); for Pigweed plant response rating (0 to 100 scale, 0 is no effect, 100 is complete control): Preemergence, 500 g ai/ha, visual injury approx. 10 d
Kochia (Kochia scoparia) [5] = assay: Test A preemergence; conditions: for Plant response rating, Kochia: 125 g ai/ha, preemergence, 0 to 100 scale (0 no effect, 100 complete control); for Kochia plant response rating (0 to 100 scale, 0 is no effect, 100 is complete control): Preemergence, 500 g ai/ha, visual injury approx. 10 d
Procedure, shortened: as §1

[6] = system: barnyardgrass (Echinochloa crus-galli); assay: Test A preemergence; conditions: for Plant response rating, Barnyardgrass: 125 g ai/ha, preemergence, 0 to 100 scale (0 no effect, 100 complete control); for Barnyardgrass plant response rating (0 to 100 scale, 0 is no effect, 100 is complete control): Preemergence, 500 g ai/ha, visual injury approx. 10 d
Procedure, shortened: as §1

rice (Oryra sativa) = assay: Test B flooded paddy test; conditions: Flood, 0 to 100 scale where 0 is no effect and 100 is complete control, 13 to 15 d
Procedure, shortened: (§2)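 Plants at 2-leaf stage flooded to 3 cm above soil, with compounds applied directly to paddy water and that depth maintained. Plants kept in greenhouse 13–15 d. Visual rating versus controls on a 0 (no effect) to 100 (complete control) scale.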

[7] = system: sedge, umbrella (small-flower umbrella sedge, Cyperus difformis); assay: Test B flooded paddy test; conditions: Flood, 0 to 100 scale where 0 is no effect and 100 is complete control, 13 to 15 d
Procedure, shortened: as §2

[8] = system: barnyardgrass (Echinochloa crus-galli); assay: Test B flooded paddy test; conditions: Flood, 0 to 100 scale where 0 is no effect and 100 is complete control, 13 to 15 d
Procedure, shortened: as §2

[9] = system: ducksalad (Heteranthera limosa); assay: Test B flooded paddy test; conditions: Flood, 0 to 100 scale where 0 is no effect and 100 is complete control, 13 to 15 d
Procedure, shortened: as §2

[10] = system: blackgrass (Alopecurus myosuroides); assay: Test A postemergence; conditions: postemergence; for Blackgrass plant response rating: 125 g ai/ha, visual injury rating on 0 to 100 scale (0 no effect, 100 complete control), approx. 10 d; for Plant response rating, Blackgrass: 500 g ai/ha, 0 to 100 scale, 0 no effect, 100 complete control
Procedure, shortened: as §1

[11] = system: Galium (catchweed bedstraw, Galium aparine); assay: Test A postemergence; conditions: postemergence; for Galium plant response rating: 125 g ai/ha, visual injury rating on 0 to 100 scale (0 no effect, 100 complete control), approx. 10 d; for Plant response rating, Galium: 500 g ai/ha, 0 to 100 scale, 0 no effect, 100 complete control
Procedure, shortened: as §1

[12] = system: ragweed (common ragweed, Ambrosia elatior); assay: Test A postemergence; conditions: postemergence; for Ragweed plant response rating: 125 g ai/ha, visual injury rating on 0 to 100 scale (0 no effect, 100 complete control), approx. 10 d; for Plant response rating, Ragweed: 500 g ai/ha, 0 to 100 scale, 0 no effect, 100 complete control
Procedure, shortened: as §1

[13] = system: giant foxtail (Setaria faberii); assay: Test A postemergence; conditions: postemergence; for Foxtail, Giant plant response rating: 125 g ai/ha, visual injury rating on 0 to 100 scale (0 no effect, 100 complete control), approx. 10 d; for Plant response rating, Foxtail, Giant: 500 g ai/ha, 0 to 100 scale, 0 no effect, 100 complete control
Procedure, shortened: as §1

[14] = system: ryegrass, Italian (Italian ryegrass, Lolium multiflorum); assay: Test A postemergence; conditions: postemergence; for Ryegrass, Italian plant response rating: 125 g ai/ha, visual injury rating on 0 to 100 scale (0 no effect, 100 complete control), approx. 10 d; for Plant response rating, Ryegrass, Italian: 500 g ai/ha, 0 to 100 scale, 0 no effect, 100 complete control
Procedure, shortened: as §1

corn (Zea mays) = assay: Test A postemergence; conditions: postemergence; for Corn plant response rating: 125 g ai/ha, visual injury rating on 0 to 100 scale (0 no effect, 100 complete control), approx. 10 d; for Plant response rating, Corn: 500 g ai/ha, 0 to 100 scale, 0 no effect, 100 complete control
Procedure, shortened: as §1

[15] = system: pigweed (Amaranthus retroflexus); assay: Test A postemergence; conditions: postemergence; for Pigweed plant response rating: 125 g ai/ha, visual injury rating on 0 to 100 scale (0 no effect, 100 complete control), approx. 10 d; for Plant response rating, Pigweed: 500 g ai/ha, 0 to 100 scale, 0 no effect, 100 complete control
Procedure, shortened: as §1

[16] = system: wheat (Triticum aestivum); assay: Test A postemergence; conditions: postemergence; for Wheat plant response rating: 125 g ai/ha, visual injury rating on 0 to 100 scale (0 no effect, 100 complete control), approx. 10 d; for Plant response rating, Wheat: 500 g ai/ha, 0 to 100 scale, 0 no effect, 100 complete control
Procedure, shortened: as §1

Kochia (Kochia scoparia) [17] = assay: Test A postemergence; conditions: postemergence; for Kochia plant response rating: 125 g ai/ha, visual injury rating on 0 to 100 scale (0 no effect, 100 complete control), approx. 10 d; for Plant response rating, Kochia: 500 g ai/ha, 0 to 100 scale, 0 no effect, 100 complete control
Procedure, shortened: as §1

[18] = system: barnyardgrass (Echinochloa crus-galli); assay: Test A postemergence; conditions: postemergence; for Barnyardgrass plant response rating: 125 g ai/ha, visual injury rating on 0 to 100 scale (0 no effect, 100 complete control), approx. 10 d; for Plant response rating, Barnyardgrass: 500 g ai/ha, 0 to 100 scale, 0 no effect, 100 complete control
Procedure, shortened: as §1

SMILES	Plant response rating, Ragweed [1]	Ragweed plant response rating (0 to 100 scale, 0 is no effect, 100 is complete control) [1]	Plant response rating, Foxtail, Giant [2]	Foxtail, Giant plant response rating (0 to 100 scale, 0 is no effect, 100 is complete control) [2]	Plant response rating, Ryegrass, Italian [3]	Ryegrass, Italian plant response rating (0 to 100 scale, 0 is no effect, 100 is complete control) [3]	Plant response rating, Pigweed [4]	Pigweed plant response rating (0 to 100 scale, 0 is no effect, 100 is complete control) [4]	Plant response rating, Kochia (Kochia (Kochia scoparia) [5])	Kochia plant response rating (0 to 100 scale, 0 is no effect, 100 is complete control) (Kochia (Kochia scoparia) [5])	Plant response rating, Barnyardgrass [6]	Barnyardgrass plant response rating (0 to 100 scale, 0 is no effect, 100 is complete control) [6]	Blackgrass plant response rating [10]	Plant response rating, Blackgrass [10]	Galium plant response rating [11]	Plant response rating, Galium [11]	Ragweed plant response rating [12]	Plant response rating, Ragweed [12]	Foxtail, Giant plant response rating [13]	Plant response rating, Foxtail, Giant [13]	also measured
Cc1cc(C2CN(C)C(=O)C2C(=O)Nc2ccc(F)cc2F)ccc1F (stereo not drawn) [Compound 404]	0	50	90	90	0	80	30	60	60	70	90	90	40	60	50	50	30	50	90	90	Plant response rating, Rice (rice (Oryra sativa); 250 g ai/ha): 30; Plant response rating, Sedge, Umbrella ([7]; 250 g ai/ha): 0; Plant response rating, Barnyardgrass ([8]; 250 g ai/ha): 80; Plant response rating, Ducksalad ([9]; 250 g ai/ha): 100; Ryegrass, Italian plant response rating [14]: 40; Plant response rating, Ryegrass, Italian [14]: 70; Corn plant response rating (corn (Zea mays)): 40; Plant response rating, Corn (corn (Zea mays)): 80; Pigweed plant response rating [15]: 20; Plant response rating, Pigweed [15]: 60; Wheat plant response rating [16]: 50; Plant response rating, Wheat [16]: 80; Kochia plant response rating (Kochia (Kochia scoparia) [17]): 60; Plant response rating, Kochia (Kochia (Kochia scoparia) [17]): 70; Barnyardgrass plant response rating [18]: 90; Plant response rating, Barnyardgrass [18]: 90
Cc1cc(C2CN(C)C(=O)C2C(=O)Nc2ccccc2S(C)(=O)=O)ccc1F (stereo not drawn) [Compound 405]	20	70	90	90	0	30	50	60	50	70	90	90	50	60	60	60	0	50	80	80	Plant response rating, Rice (rice (Oryra sativa); 250 g ai/ha): 0; Plant response rating, Sedge, Umbrella ([7]; 250 g ai/ha): 0; Plant response rating, Barnyardgrass ([8]; 250 g ai/ha): 70; Plant response rating, Ducksalad ([9]; 250 g ai/ha): 85; Ryegrass, Italian plant response rating [14]: 30; Plant response rating, Ryegrass, Italian [14]: 60; Corn plant response rating (corn (Zea mays)): 30; Plant response rating, Corn (corn (Zea mays)): 80; Pigweed plant response rating [15]: 40; Plant response rating, Pigweed [15]: 50; Wheat plant response rating [16]: 60; Plant response rating, Wheat [16]: 80; Kochia plant response rating (Kochia (Kochia scoparia) [17]): 40; Plant response rating, Kochia (Kochia (Kochia scoparia) [17]): 50; Barnyardgrass plant response rating [18]: 90; Plant response rating, Barnyardgrass [18]: 90
O=C1NCC(c2cccc(OCC(F)F)c2)C1C(=O)Nc1ccc(F)c(F)c1F (stereo not drawn) [Compound 407]	0	0	80	90	0	0	0	20	0	0	70	80	30	50	0	0	0	0	70	70	Plant response rating, Rice (rice (Oryra sativa); 500 g ai/ha): 10; Plant response rating, Sedge, Umbrella ([7]; 500 g ai/ha): 0; Plant response rating, Barnyardgrass ([8]; 500 g ai/ha): 60; Plant response rating, Ducksalad ([9]; 500 g ai/ha): 100; Ryegrass, Italian plant response rating [14]: 0; Plant response rating, Ryegrass, Italian [14]: 0; Corn plant response rating (corn (Zea mays)): 0; Plant response rating, Corn (corn (Zea mays)): 40; Pigweed plant response rating [15]: 0; Plant response rating, Pigweed [15]: 0; Wheat plant response rating [16]: 0; Plant response rating, Wheat [16]: 0; Kochia plant response rating (Kochia (Kochia scoparia) [17]): 0; Plant response rating, Kochia (Kochia (Kochia scoparia) [17]): 40; Barnyardgrass plant response rating [18]: 60; Plant response rating, Barnyardgrass [18]: 70
O=C1NCC(c2ccc(F)c(F)c2)C1C(=O)Nc1ccc(F)cc1Cl (stereo not drawn) [Compound 411]	0	0	80	90	0	0	0	10	0	0	70	80	0	0	30	50	0	0	40	80	Plant response rating, Rice (rice (Oryra sativa); 500 g ai/ha): 0; Plant response rating, Sedge, Umbrella ([7]; 500 g ai/ha): 0; Plant response rating, Barnyardgrass ([8]; 500 g ai/ha): 20; Plant response rating, Ducksalad ([9]; 500 g ai/ha): 98; Ryegrass, Italian plant response rating [14]: 0; Plant response rating, Ryegrass, Italian [14]: 0; Corn plant response rating (corn (Zea mays)): 0; Plant response rating, Corn (corn (Zea mays)): 0; Pigweed plant response rating [15]: 0; Plant response rating, Pigweed [15]: 0; Wheat plant response rating [16]: 0; Plant response rating, Wheat [16]: 0; Kochia plant response rating (Kochia (Kochia scoparia) [17]): 0; Plant response rating, Kochia (Kochia (Kochia scoparia) [17]): 0; Barnyardgrass plant response rating [18]: 40; Plant response rating, Barnyardgrass [18]: 70
Cc1cc(NC(=O)C2C(=O)NCC2c2ccc(F)c(F)c2)ccc1F (stereo not drawn) [Compound 412]	0	0	60	70	0	0	0	0	0	0	40	70	0	0	0	0	0	0	0	0	Plant response rating, Rice (rice (Oryra sativa); 500 g ai/ha): 0; Plant response rating, Sedge, Umbrella ([7]; 500 g ai/ha): 0; Plant response rating, Barnyardgrass ([8]; 500 g ai/ha): 0; Plant response rating, Ducksalad ([9]; 500 g ai/ha): 30; Ryegrass, Italian plant response rating [14]: 0; Plant response rating, Ryegrass, Italian [14]: 0; Corn plant response rating (corn (Zea mays)): 0; Plant response rating, Corn (corn (Zea mays)): 0; Pigweed plant response rating [15]: 0; Plant response rating, Pigweed [15]: 0; Wheat plant response rating [16]: 0; Plant response rating, Wheat [16]: 0; Kochia plant response rating (Kochia (Kochia scoparia) [17]): 0; Plant response rating, Kochia (Kochia (Kochia scoparia) [17]): 0; Barnyardgrass plant response rating [18]: 0; Plant response rating, Barnyardgrass [18]: 0
